The text below walks through data of publication PMC6154706, “Inhibitory Effect of Triterpenoids from Panax ginseng on Coagulation Factor X” (Molecules : A Journal of Synthetic Chemistry and Natural …, 2017).

Like-named read-outs stand apart in the source and are kept apart here.

One experiment has as its system Platelet poor plasma. The experiment is described as follows: Blood clotting time in vitro (APTT, PT, TT). It counts as biochemical, rats. To be noted: PT and TT tests, final concentration 0.05 mg/mL. The procedure: Rats were anaesthetized with 10% chloral hydrate (3 mL/kg). The blood obtained from the abdominal aorta was collected directly into citrated tubes containing 3.8% sodium citrate (1:9 (v/v)) and was used immediately after collection. Platelet poor plasma […] was prepared by centrifuging the blood at 3000 rpm for 20 min at 20 °C [24]. Plasma samples with jaundice, chylus, hemolysis and blood clot were excluded prior to the assays. Plasma mixtures were 90 μL of PRP with 10 μL of tested compounds (0.5 mg/mL, dissolved in DMSO). For PRP in the solvent group, the sample was 90 μL of PRP with 10 μL of DMSO. For PRP in the normal control group, the plasma was not-treated PRP sample. For PRP in the heparin group, the sample was 90 μL of PRP with 10 μL of heparin (0.1 mg/mL), which was used as the positive control drug.
Blood coagulation assays were carried out using a coagulation analyzer at the Blood Center clinical laboratory in the Second Hospital affiliated to Jilin University (Changchun, China). Measurements of APTT, PT and TT were performed according to the manufacturer’s recommended protocols. The anti-coagulant activity was expressed as clotting time ± standard deviation (S.D.). Briefly, for APTT assay, 50 μL of the plasma mixture was incubated at 37 °C for 60 s and the mixture was added to the APTT reagent (50 μL) and incubated at 37 °C for 15 min. Finally, APTT values were recorded. For the PT assay, 50 μL of the plasma mixture was incubated at 37 °C for 60 s and then added into the PT reagent (100 μL) prior to incubation at 37 °C for 15 min before the PT values were recorded. For the TT assay, 80 μL of the plasma mixture was incubated at 37 °C for 60 s before the addition of 80 μL of TT reagent for 100 s. TT values were determined by the coagulation analyzer.

The target of experiment [1] is T1, coagulation factor Xa (FXa) (Bos taurus, UniProt P00743).
T1 construct: purchased New England Biolabs (Hitchin, UK)
T1 sequence (P00743 41-180): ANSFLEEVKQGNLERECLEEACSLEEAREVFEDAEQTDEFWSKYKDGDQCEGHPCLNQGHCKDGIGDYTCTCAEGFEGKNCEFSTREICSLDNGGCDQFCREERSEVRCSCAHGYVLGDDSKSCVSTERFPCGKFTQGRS
T1 sequence (P00743 234-492): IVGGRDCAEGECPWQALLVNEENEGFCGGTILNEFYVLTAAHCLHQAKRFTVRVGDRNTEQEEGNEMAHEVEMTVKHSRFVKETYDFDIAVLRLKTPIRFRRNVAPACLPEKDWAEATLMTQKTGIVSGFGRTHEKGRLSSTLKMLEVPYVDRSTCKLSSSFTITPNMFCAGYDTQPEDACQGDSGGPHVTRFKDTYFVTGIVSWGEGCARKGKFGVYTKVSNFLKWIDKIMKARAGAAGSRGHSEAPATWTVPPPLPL
The experiment is described as follows: FXa activity assay in vitro (chromogenic substrate method). It counts as biochemical. The procedure: 10 µL of FXa (final concentration of 0.5 nM), 40 µL of Tris buffer (adjusted to pH 7.4 with HCl containing 0.3 M NaCl and 50 mM Tris) and 10 µL of test compounds were added to the well, respectively. The negative control was performed using the same mixed solutions except that the test compound was replaced with DMSO. […] After 15 min of incubation at 37 °C, FXa substrate (40 μL, final concentration of […]) was added and then was incubated 37 °C for 25 min [3]. The optical density (OD) values at 405 nm were evaluated by an automated microplate reader. […] Inhibition rate was calculated by the following formula: Anti-FXa activity = (V0 − Vi)/V0 [21]. The IC50 value was subsequently calculated by SPSS 19.0.

The next experiment deals with T2, human FIIa (thrombin) (Homo sapiens, UniProt P00734).
T2 construct: purchased Hyphen BioMed (Paris, France)
The experiment is described as follows: Thrombin inhibition in vitro (chromogenic substrate CS-01(38)). To be noted: pH 7.4, 37 °C, 405 nm. It counts as biochemical. The procedure: The inhibition of thrombin was evaluated by human FIIa and chromogenic substrate CS-01(38) in 96-well microtiter plates at room temperature. Compounds 5, 13 and 18 as well as the positive reagent Ximelagatran were dissolved in DMSO to a concentration of 1mM and then serially diluted to a range of 10 μM to 100 μM, respectively. 8 μL of FIIa (3 NIH U/mL), 80 μL of Tris buffer (adjusted to pH 7.4 with HCl) containing 0.3 M NaCl and 50 mM Tris and 8 μL of test compounds were added to the well, respectively. The negative control was performed using the same mixed solutions except that tested compounds were replaced with DMSO. The positive control was performed using the same mixed solutions except that the test compounds were replaced with ximelagatran. After incubation at 37 °C for 15 min, 12 μL of FIIa substrate solution (4 mM) was added and then incubated at 37 °C for 25 min [3]. The anti-FIIa activity was measured at 405 nm using a microplate reader.

Another experiment has as its system blood coagulation. Conditions: 0.05 mg/mL final concentration vs 0.1 mg/mL heparin; cited from earlier work.
The next experiment has as its system thrombus. Further details: method as in PMID 24412029, PMID 22216842. To be noted: rat models, orally administered; cited from earlier work.
The next experiment has as its system FXa. Further details: method as in PMID 24412029, PMID 22216842. Conditions: cited from earlier work.
Where [2] appears, read: FXa 0.5 nM, pH 7.4, 37 °C, OD 405 nm, read-out: IC50 against coagulation factor Xa (FXa).

For the compound 20(R)-Rg3, in the experiment with Platelet poor plasma, the “In vitro anti-coagulation activity versus normal control” value was “insignificant anti-coagulation effects”.
Take `CC(C)=CCC[C@](C)(O[C@@H]1O[C@H](CO)[C@@H](O)[C@H](O)[C@H]1O)[C@H]1CC[C@]2(C)[C@@H]1[C@H](O)C[C@@H]1[C@@]3(C)CC[C@H](O)C(C)(C)[C@@H]3[C@@H](O)C[C@]12C` [F1, ginsenoside F1]: the IC50 (commonly the point on the concentration scale where inhibition reaches its midpoint) in experiment [1] (setting [2]) is 227 nM. The “In vitro anti-coagulation activity versus normal control” value in the experiment with Platelet poor plasma is listed as “significant anti-coagulation activity”.
Taken in the same sequence, the figures for `CC(C)=CCC[C@](C)(O[C@@H]1O[C@H](CO)[C@@H](O)[C@H](O)[C@H]1O)[C@H]1CC[C@]2(C)[C@@H]1[C@H](O)C[C@@H]1[C@@]3(C)CC[C@H](O[C@@H]4O[C@H](CO)[C@@H](O)[C@H](O)[C@H]4O)C(C)(C)[C@@H]3CC[C@]12C` [F2, ginsenoside F2] were 425 nM and “significant anti-coagulation activity”.
Taken in the same sequence, the figures for `CC(C)=CCCC(C)(O)C1CCC2(C)C1C(O)CC1C3(C)CCC(O)C(C)(C)C3CCC12C` (centres unmarked) [PPD, protopanaxdiol] were 339 nM and “significant anti-coagulation activity”.
As to `CC(C)=CCCC(C)(O)C1CCC2(C)C1C(O)CC1C3(C)CCC(O)C(C)(C)C3C(O)CC12C` (centres unmarked) [PPT, protopanaxtriol], the IC50 in experiment [1] (setting [2]) was determined as 141 nM; at human FIIa (thrombin), 82000 nM. In addition, in the experiment with Platelet poor plasma, the “In vitro anti-coagulation activity versus normal control” value is listed as “best bioactivity (p < 0.01)”.
With `CC(C)=CCC[C@](C)(O)[C@H]1CC[C@]2(C)[C@@H]1[C@H](O)C[C@@H]1[C@@]3(C)CC[C@H](O)C(C)(C)[C@@H]3[C@@H](O[C@@H]3O[C@H](CO)[C@@H](O)[C@H](O)[C@H]3O[C@@H]3O[C@H](CO)[C@@H](O)[C@H](O)[C@H]3O)C[C@]12C` [Rf, ginsenoside Rf], the IC50 in experiment [1] (setting [2]) is 1030 nM. Besides, the “In vitro anti-coagulation activity versus normal control” value in the experiment with Platelet poor plasma was “insignificant anti-coagulation effects”.
With `CC(C)=CCC[C@](C)(O[C@@H]1O[C@H](CO)[C@@H](O)[C@H](O)[C@H]1O)[C@H]1CC[C@]2(C)[C@@H]1[C@H](O)C[C@@H]1[C@@]3(C)CC[C@H](O)C(C)(C)[C@@H]3[C@@H](O[C@@H]3O[C@H](CO)[C@@H](O)[C@H](O)[C@H]3O)C[C@]12C` [Rg1, ginsenoside Rg1], in experiment [1] (setting [2]), the IC50 is 335 nM. Besides, the “Anti-coagulant activities in vitro compared to heparin” value in the experiment with blood coagulation is reported as “significantly better anti-coagulant activities”. Further, the “In vitro anti-coagulation activity versus normal control” value with Platelet poor plasma was “significant anti-coagulation activity”.
For the compound `CC(C)=CCC[C@](C)(O)[C@H]1CC[C@]2(C)[C@@H]1[C@H](O)C[C@@H]1[C@@]3(C)CC[C@H](O)C(C)(C)[C@@H]3[C@@H](O[C@@H]3O[C@H](CO)[C@@H](O)[C@H](O)[C@H]3O[C@@H]3O[C@@H](C)[C@H](O)[C@@H](O)[C@H]3O)C[C@]12C` [Rg2, ginsenoside Rg2], the results for the IC50 (in experiment [1] (setting [2]); against human FIIa (thrombin)) were 136 nM and 81300 nM, respectively. Also, the “Anti-coagulant activities in vitro compared to heparin” value with blood coagulation is on record as “significantly better anti-coagulant activities”. Moreover, in the experiment on Platelet poor plasma, the “In vitro anti-coagulation activity versus normal control” value is listed as “best bioactivity (p < 0.01)”.
As to `CC(C)=CCC[C@](C)(O)[C@H]1CC[C@]2(C)[C@@H]1[C@H](O)C[C@@H]1[C@@]3(C)CC[C@H](O)C(C)(C)[C@@H]3[C@@H](O[C@@H]3O[C@H](CO)[C@@H](O)[C@H](O)[C@H]3O)C[C@]12C` [Rh1, ginsenoside Rh1], inhibition in experiment [1] was half-maximal at 236 nM (IC50). In the experiment with Platelet poor plasma, the “In vitro anti-coagulation activity versus normal control” value is listed as “significant anti-coagulation activity”.
`CC(C)=CCC[C@](C)(O)[C@H]1CC[C@]2(C)[C@@H]1[C@H](O)C[C@@H]1[C@@]3(C)CC[C@H](O[C@@H]4O[C@H](CO)[C@@H](O)[C@H](O)[C@H]4O)C(C)(C)[C@@H]3CC[C@]12C` [Rh2, ginsenoside Rh2] came in with an IC50 in experiment [1] of 349 nM. Moreover, in the experiment on Platelet poor plasma, the “In vitro anti-coagulation activity versus normal control” value is given as “significant anti-coagulation activity”.
As to `CC1(C)[C@@H](O)CC[C@]2(C)[C@H]3C(=O)C=C4[C@@H]5C[C@@](C)(C(=O)O)CC[C@]5(C)CC[C@@]4(C)[C@]3(C)CC[C@@H]12` [glycyrrhetinic acid], in the experiment on thrombus, the Thrombus weight entry is given as “reduce thrombus weight”. In addition, the “Inhibition of FXa activity in vitro” value with FXa is recorded as “significantly inhibit FXa activity in vitro with specificity”.
Take ginsenoside Rg3: the “In vitro anti-coagulation activity versus normal control” value in the experiment with Platelet poor plasma is reported as “best bioactivity (p < 0.01)”.
